# ChEMBL document CHEMBL1201862, “PubChem BioAssay data set” (2004)
#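 Grown in 96-well plates, cells were treated for 48 hours with each compound at five concentrations. Insufficient inhibition: endpoint recorded as highest concentration tested. The concentration for 50% growth inhibition is given as GI50.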 The source made the active and inactive calls. Rule as the data show it: active = GI50 up to about 1.1 µM and inactive = higher.
# What was measured:
# Test in all cases: growth of human tumour cells (NCI), 48 h
# HT-29 = tested on: HT-29
# TK-10 = tested on: TK-10
# KM12 = tested on: KM12
# OVCAR-8 = tested on: OVCAR-8
# SN12C = tested on: SN12C
# UO-31 = tested on: UO-31
# HCT-15 = tested on: HCT-15
# MCF7 = tested on: MCF7
# HL-60 = tested on: HL-60
# OVCAR-3 = tested on: OVCAR-3
# SF-539 = tested on: SF-539
# UACC-257 = tested on: UACC-257
# SNB-19 = tested on: SNB-19
# K562 = tested on: K562
# SW-620 = tested on: SW-620
# CCRF-CEM = tested on: CCRF-CEM
# HCT-116 = tested on: HCT-116
# A549 = tested on: A549
# A498 = tested on: A498
# EKVX = tested on: EKVX
# NCI-H226 = tested on: NCI-H226
# MDA-N = tested on: MDA-N
# SK-MEL-28 = tested on: SK-MEL-28
# OVCAR-4 = tested on: OVCAR-4
# RPMI-8226 = tested on: RPMI-8226
# SK-OV-3 = tested on: SK-OV-3
# OVCAR-5 = tested on: OVCAR-5
# SF-268 = tested on: SF-268
# ACHN = tested on: ACHN
# M14 = tested on: M14
# HOP-62 = tested on: HOP-62
# RXF 393 = tested on: RXF 393
# MOLT-4 = tested on: MOLT-4
# IGROV-1 = tested on: IGROV-1
# SK-MEL-5 = tested on: SK-MEL-5
# MDA-MB-231 = tested on: MDA-MB-231
# COLO 205 = tested on: COLO 205
# 786-0 = tested on: 786-0
# SR = tested on: SR
# SNB-75 = tested on: SNB-75
# NCI-H460 = tested on: NCI-H460
# HOP-92 = tested on: HOP-92
# NCI-H23 = tested on: NCI-H23
# PC-3 = tested on: PC-3
# CAKI-1 = tested on: CAKI-1
# Malme-3M = tested on: Malme-3M
# NCI/ADR-RES = tested on: NCI/ADR-RES
# BT-549 = tested on: BT-549
# HCC 2998 = tested on: HCC 2998
# LOX IMVI = tested on: LOX IMVI
# SF-295 = tested on: SF-295
# UACC-62 = tested on: UACC-62
# DU-145 = tested on: DU-145
# NCI-H522 = tested on: NCI-H522
# U-251 = tested on: U-251
# Hs-578T = tested on: Hs-578T
# SK-MEL-2 = tested on: SK-MEL-2
# MDA-MB-435 = tested on: MDA-MB-435
# T47D = tested on: T47D
# DMS-273 = tested on: DMS-273
# LXFL 529 = tested on: LXFL 529
# DMS-114 = tested on: DMS-114
# M19-MEL = tested on: M19-MEL
# DLD-1 = tested on: DLD-1
# SNB-78 = tested on: SNB-78
compound,measurement,setting,value
S=C1Cc2c(-c3ccc(Cl)cc3)cc(-c3ccccc3)nc2-c2ccccc2N1,GI50,HT-29,5.47 µM (inactive)
same,GI50,TK-10,12.3 µM (inactive)
same,GI50,KM12,4.85 µM (inactive)
same,GI50,OVCAR-8,2.86 µM (inactive)
same,GI50,SN12C,13.5 µM (inactive)
same,GI50,UO-31,14.8 µM (inactive)
same,GI50,HCT-15,21.1 µM
same,GI50,MCF7,17.1 µM (inactive)
same,GI50,HL-60,30.6 µM (inactive)
same,GI50,OVCAR-3,13 µM (inactive)
same,GI50,SF-539,4.01 µM (inactive)
same,GI50,UACC-257,14.1 µM (inactive)
same,GI50,SNB-19,4.5 µM (inactive)
same,GI50,K562,> 100 µM (inactive)
same,GI50,SW-620,19.1 µM (inactive)
same,GI50,CCRF-CEM,26.2 µM (inactive)
same,GI50,HCT-116,11 µM (inactive)
same,GI50,A549,8.73 µM (inactive)
same,GI50,A498,14.8 µM (inactive)
same,GI50,EKVX,15.6 µM (inactive)
same,GI50,NCI-H226,13.1 µM (inactive)
same,GI50,MDA-N,14 µM (inactive)
same,GI50,SK-MEL-28,13.8 µM (inactive)
same,GI50,OVCAR-4,3.08 µM (inactive)
same,GI50,RPMI-8226,37.3 µM (inactive)
same,GI50,SK-OV-3,10.6 µM (inactive)
same,GI50,OVCAR-5,24.5 µM (inactive)
same,GI50,SF-268,14.3 µM (inactive)
same,GI50,ACHN,7.82 µM (inactive)
same,GI50,M14,12.8 µM (inactive)
same,GI50,HOP-62,6.98 µM (inactive)
same,GI50,RXF 393,6.56 µM (inactive)
same,GI50,MOLT-4,28.7 µM (inactive)
same,GI50,IGROV-1,3.83 µM (inactive)
same,GI50,SK-MEL-5,16 µM (inactive)
same,GI50,MDA-MB-231,7.8 µM (inactive)
same,GI50,COLO 205,16 µM (inactive)
same,GI50,786-0,5.97 µM (inactive)
same,GI50,SR,> 100 µM (inactive)
same,GI50,SNB-75,3.76 µM (inactive)
same,GI50,NCI-H460,13 µM (inactive)
same,GI50,HOP-92,8.04 µM (inactive)
same,GI50,NCI-H23,11.6 µM (inactive)
same,GI50,PC-3,15.2 µM (inactive)
same,GI50,CAKI-1,3.95 µM (inactive)
same,GI50,Malme-3M,13.8 µM (inactive)
same,GI50,NCI/ADR-RES,12.7 µM (inactive)
same,GI50,BT-549,16.6 µM (inactive)
same,GI50,HCC 2998,23.9 µM (inactive)
same,GI50,LOX IMVI,13.9 µM (inactive)
same,GI50,SF-295,14.2 µM (inactive)
same,GI50,UACC-62,14.6 µM (inactive)
same,GI50,DU-145,22 µM (inactive)
same,GI50,NCI-H522,15.7 µM (inactive)
same,GI50,U-251,4.03 µM (inactive)
same,GI50,Hs-578T,3.56 µM (inactive)
same,GI50,SK-MEL-2,17.7 µM (inactive)
same,GI50,MDA-MB-435,15 µM (inactive)
same,GI50,T47D,19.8 µM (inactive)
CCOc1ccccc1C=C1c2ccccc2C(=O)c2ccccc21,GI50,TK-10,4.56 µM (inactive)
same,GI50,KM12,0.673 µM (active)
same,GI50,OVCAR-8,5.27 µM (inactive)
same,GI50,SN12C,6.56 µM (inactive)
same,GI50,UO-31,2.59 µM (inactive)
same,GI50,HCT-15,0.804 µM
same,GI50,HL-60,2.99 µM (inactive)
same,GI50,OVCAR-3,2.5 µM (inactive)
same,GI50,SF-539,2.16 µM (inactive)
same,GI50,UACC-257,4.21 µM (inactive)
same,GI50,SNB-19,3.63 µM (inactive)
same,GI50,K562,3.32 µM (inactive)
same,GI50,SW-620,3.72 µM (inactive)
same,GI50,CCRF-CEM,4.32 µM (inactive)
same,GI50,HCT-116,4.63 µM (inactive)
same,GI50,A549,5.16 µM (inactive)
same,GI50,A498,6.75 µM (inactive)
same,GI50,EKVX,3.23 µM (inactive)
same,GI50,DMS-273,0.535 µM (active)
same,GI50,SK-MEL-28,12 µM (inactive)
same,GI50,OVCAR-4,22.1 µM (inactive)
same,GI50,LXFL 529,6.98 µM (inactive)
same,GI50,RPMI-8226,3.81 µM (inactive)
same,GI50,DMS-114,3.42 µM (inactive)
same,GI50,SK-OV-3,3.03 µM (inactive)
same,GI50,OVCAR-5,12.8 µM (inactive)
same,GI50,SF-268,5.07 µM (inactive)
same,GI50,ACHN,8.63 µM (inactive)
same,GI50,M14,5.83 µM (inactive)
same,GI50,HOP-62,3.76 µM (inactive)
same,GI50,RXF 393,2.04 µM (inactive)
same,GI50,MOLT-4,4.3 µM (inactive)
same,GI50,M19-MEL,5.93 µM (inactive)
same,GI50,IGROV-1,3.58 µM (inactive)
same,GI50,SK-MEL-5,2.75 µM (inactive)
same,GI50,COLO 205,3.78 µM (inactive)
same,GI50,786-0,3.38 µM (inactive)
same,GI50,SNB-75,2.17 µM (inactive)
same,GI50,NCI-H460,4.15 µM (inactive)
same,GI50,HOP-92,5.48 µM (inactive)
same,GI50,NCI-H23,4.06 µM (inactive)
same,GI50,CAKI-1,2.11 µM (inactive)
same,GI50,Malme-3M,8.15 µM (inactive)
same,GI50,HCC 2998,3.63 µM (inactive)
same,GI50,LOX IMVI,8.69 µM (inactive)
same,GI50,SF-295,3.82 µM (inactive)
same,GI50,UACC-62,3.34 µM (inactive)
same,GI50,NCI-H522,2.36 µM (inactive)
same,GI50,U-251,4.37 µM (inactive)
same,GI50,DLD-1,2.55 µM (inactive)
same,GI50,SK-MEL-2,2.94 µM (inactive)
same,GI50,SNB-78,5.75 µM (inactive)
O=C1NC(=S)S/C1=C/c1ccco1,GI50,HT-29,> 100 µM (inactive)
same,GI50,TK-10,> 100 µM (inactive)
same,GI50,OVCAR-8,> 100 µM (inactive)
same,GI50,SN12C,> 100 µM (inactive)
same,GI50,UO-31,> 100 µM (inactive)
same,GI50,HCT-15,> 100 µM
same,GI50,OVCAR-3,50.1 µM (inactive)
same,GI50,SF-539,> 100 µM (inactive)
same,GI50,UACC-257,46.3 µM (inactive)
same,GI50,SNB-19,> 100 µM (inactive)
same,GI50,SW-620,> 100 µM (inactive)
same,GI50,HCT-116,> 100 µM (inactive)
same,GI50,A549,> 100 µM (inactive)
same,GI50,A498,11.1 µM (inactive)
same,GI50,EKVX,> 100 µM (inactive)
same,GI50,DMS-273,> 100 µM (inactive)
same,GI50,NCI-H226,> 100 µM (inactive)
same,GI50,SK-MEL-28,> 100 µM (inactive)
same,GI50,OVCAR-4,> 100 µM (inactive)
same,GI50,LXFL 529,> 100 µM (inactive)
same,GI50,DMS-114,> 100 µM (inactive)
same,GI50,SK-OV-3,> 100 µM (inactive)
same,GI50,OVCAR-5,> 100 µM (inactive)
same,GI50,SF-268,> 100 µM (inactive)
same,GI50,ACHN,> 100 µM (inactive)
same,GI50,M14,> 100 µM (inactive)
same,GI50,RXF 393,> 100 µM (inactive)
same,GI50,IGROV-1,> 100 µM (inactive)
same,GI50,SK-MEL-5,> 100 µM (inactive)
same,GI50,COLO 205,> 100 µM (inactive)
same,GI50,SNB-75,> 100 µM (inactive)
same,GI50,NCI-H460,> 100 µM (inactive)
same,GI50,HOP-92,49.4 µM (inactive)
same,GI50,NCI-H23,> 100 µM (inactive)
same,GI50,CAKI-1,> 100 µM (inactive)
same,GI50,HCC 2998,> 100 µM (inactive)
same,GI50,LOX IMVI,> 100 µM (inactive)
same,GI50,SF-295,> 100 µM (inactive)
same,GI50,UACC-62,> 100 µM (inactive)
same,GI50,DLD-1,> 100 µM (inactive)
